The target of this test is T1, LG586 enzyme (Homo sapiens, UniProt Q9Y4D2).
T1 sequence (Q9Y4D2 1-1042): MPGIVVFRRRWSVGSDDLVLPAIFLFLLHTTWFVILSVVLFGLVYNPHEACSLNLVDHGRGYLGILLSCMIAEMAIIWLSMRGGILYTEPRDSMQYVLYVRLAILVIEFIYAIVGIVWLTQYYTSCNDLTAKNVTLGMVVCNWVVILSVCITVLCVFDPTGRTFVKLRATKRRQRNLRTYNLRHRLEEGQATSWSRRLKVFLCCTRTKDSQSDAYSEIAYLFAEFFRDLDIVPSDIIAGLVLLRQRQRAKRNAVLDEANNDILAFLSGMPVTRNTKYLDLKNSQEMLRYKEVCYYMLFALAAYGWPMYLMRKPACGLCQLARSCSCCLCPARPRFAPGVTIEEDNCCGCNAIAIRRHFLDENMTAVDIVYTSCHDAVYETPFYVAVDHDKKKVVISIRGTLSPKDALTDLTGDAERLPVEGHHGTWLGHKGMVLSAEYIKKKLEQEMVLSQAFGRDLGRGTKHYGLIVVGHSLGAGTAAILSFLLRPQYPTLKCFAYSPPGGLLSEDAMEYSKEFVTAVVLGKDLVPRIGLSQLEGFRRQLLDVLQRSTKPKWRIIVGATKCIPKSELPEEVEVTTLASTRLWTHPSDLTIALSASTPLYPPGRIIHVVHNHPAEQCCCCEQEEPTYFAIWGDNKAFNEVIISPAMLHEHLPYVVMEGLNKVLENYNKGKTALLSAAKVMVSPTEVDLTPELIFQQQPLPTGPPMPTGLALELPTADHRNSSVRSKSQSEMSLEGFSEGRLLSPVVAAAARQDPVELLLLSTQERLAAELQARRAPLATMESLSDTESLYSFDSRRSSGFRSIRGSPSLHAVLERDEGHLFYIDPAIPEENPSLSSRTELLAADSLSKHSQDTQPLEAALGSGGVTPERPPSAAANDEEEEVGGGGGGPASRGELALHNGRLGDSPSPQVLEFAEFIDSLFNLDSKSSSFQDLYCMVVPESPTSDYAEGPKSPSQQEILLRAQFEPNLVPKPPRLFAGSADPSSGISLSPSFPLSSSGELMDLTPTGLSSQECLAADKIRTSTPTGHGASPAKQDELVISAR
It counts as biochemical. To be noted: LG586 membrane prep, 250 μM PNP substrate, 10 min preincubation.

Like-named read-outs stand apart in the source and are kept apart here.

Description: Black non-binding surface Corning plates (3655) were spotted with 0.9 μL of compound in twenty point 1:3 dilutions. The same volume of dimethyl sulfoxide (DMSO) was added to column 23 of the plate.
A membrane prep from a stable HEK cell line expressing LG586 was prepared by the Cell Resource Group at BMS in Hopewell, N.J. The protein concentration of the membrane prep was 1.28 μg/μL. […] For the assay, membrane was thawed to room temperature and then added to the assay buffer, 100 mM HEPES in MQ water at pH 7.5. The concentration of the LG586 enzyme in the assay is 0.005 μg/mL.
The substrate used in this assay was purchased from Sigma (N9876) p-nitrophenyl butyrate (PNP). The substrate is received in the liquid form and must be diluted with DMSO. […] The final concentration of the substrate is 250 μM.
Enzyme was added to the plates 80 μL/well using a Multi-drop Combi (Thermo). The plates were incubated with the compound for 10 minutes at room temperature. Then 9 μL of substrate was added to each well and the plates were immediately read on the Viewlux Imager (Perkin Elmer) in absorbance mode with the excitation filter of 405 nm and emission filter of 564/250 nm. The read was kinetic, plates were read once every 30 seconds for 5 minutes and then slopes were calculated for each well and the data was reduced with in-house software.

For “2-(2,2-dimethyl-N-(4-(naphthalen-1-yl)benzyl)chroman-6-sulfonamido)acetic acid [Example 23]”, the IC50 (read-out: Data Range*) fell in the range of 2 to 100 nM and the IC50 (read-out: LE_LG586PNP_DR (IC50)) is 3 nM.

The record behind these values is patent publication US8354548B2, “Glycine chroman-6-sulfonamides for use as inhibitors of diacylglycerol lipase” (priority 2010, dated 2013).
